Patent US7294640B2, “Mitotic kinesin inhibitors” (Merck & Co., Inc., priority 2004, dated 2007)

Each compound was assayed against T1, GST-MCAK fusion protein (Homo sapiens, UniProt Q99661) (assay: MCAK ATPase in vitro assay). Details: GST-MCAK 100 nM, 1 mM sodium ATP, 2 μM microtubules, RT 50 min, 5% DMSO.
T1 construct: The GST-MCAK fusion protein was purchased Cytoskeleton (cat. #MK01); fused on or other part: GST tag (N-terminal, by the vendor's product)
Type: biochemical
Protocol: V. MCAK ATPase in Vitro Assay
Reagents: The GST-MCAK fusion protein was purchased Cytoskeleton (cat. #MK01). Tubulin from bovine brain was purchased from Cytoskeleton (HTS-grade), BSA from Sigma (cat. # 3059). chloramphenicol from Boehringer Mannheim (cat. # 634433), ampicillin from Fisher Biotech (cat. # BP1760-25) and Paclitaxel from Cytoskeleton (cat. # TXD01)
Microtubule preparation: For the preparation of microtubules, purified tubulin (>97% MAP-free) at 1 mg/ml was polymerized at 37° C. in the presence of 10 μM paclitaxel, 1 mM DTT, 1 mM GTP in BRB80 buffer (80 mM K-PIPES, 1 mM EGTA, 1 mM MgCl2 at pH 6.8). The resulting microtubules were separated from non-polymerized tubulin by ultracentrifugation and removal of the supernatant. The pellet, containing the microtubules, was gently resuspended in 1×BRB 80 containing 10 μM paclitaxel, 1 mM DTT, 50 μg/ml ampicillin, 5 μg/ml chloramphenicol in BRB80.
MCAK ATPase assay: GST-MCAK at 100 nM was incubated with 1 mM sodium ATP, 2 μM microtubules with 2 μM paclitaxel (concentration refers to tubulin dimers), and inhibitor at RT for 50 min in reaction buffer (80 mM K-PIPES, 1 mM K-EGTA, 2 mM MgCl2, 1 mM DTT, and 100 μg/ml BSA, pH 6.9). Compounds were dissolved in DMSO, and the final DMSO concentration in the reaction was 5%. The reaction was terminated with a 2-fold dilution of the reaction with 2× stop buffer (50 mM EDTA/1.8 M KCl). The free phosphate from the ATP hydrolysis reaction was measured via a quinaldine red/ammonium molybdate assay by adding 1.5 volumes of quench C within 24 hrs of addition of stop buffer. (Cogan, E. B., Birrell, G. B., Griffith, O. H. (1999) Analytical Biochemistry 271, p 29). Quench C was prepared by adding 1 volume of quench B (12.3 mM ammonium molybdate tetrahydrate in 1.15 M sulfuric acid) to 2 volumes of quench A (0.1 mg/ml quinaldine red, 0.14% polyvinyl alcohol). The plate was incubated for 5 min at room temperature, and the absorbance of the phosphomolybdate complex was measured at 540 nm.

T1 sequence (Q99661 258-588 limits assumed): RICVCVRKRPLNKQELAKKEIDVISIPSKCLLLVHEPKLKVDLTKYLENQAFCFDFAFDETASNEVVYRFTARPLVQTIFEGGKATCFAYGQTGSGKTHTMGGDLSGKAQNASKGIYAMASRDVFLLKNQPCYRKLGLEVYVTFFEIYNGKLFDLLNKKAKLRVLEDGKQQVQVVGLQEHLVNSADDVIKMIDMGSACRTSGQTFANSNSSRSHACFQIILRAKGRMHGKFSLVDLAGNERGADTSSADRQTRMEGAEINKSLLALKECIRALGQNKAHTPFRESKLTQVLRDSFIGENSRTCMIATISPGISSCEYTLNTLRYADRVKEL

IC50 [µM] | Compound
≤ 50 | CC(c1ccccc1)c1nc(-c2ccc([N+](=O)[O-])cc2)cs1 (centres unmarked) [Compound 1-5, 4-(4-nitrophenyl)-2-(1-phenylethyl)-1,3-thiazole]
≤ 50 | c1ccc(C2(c3nc(-c4cccnc4)cs3)CC2)cc1 [Compound 1-10, 3-[2-(1-phenylcyclopropyl)-1,3-thiazol-4-yl]pyridine]
≤ 50 | N#Cc1ccc(-c2csc(C3(c4c(F)cccc4F)CC3)n2)cc1 [Compound 1-15, 4-{2-[1-(2,6-difluorophenyl)cyclopropyl]-1,3-thiazol-4-yl}benzonitrile]
≤ 50 | N#Cc1ccc(-c2csc(C3(c4ccccc4)CC3)n2)cn1 [Compound 2-2, 5-[2-(1-phenylcyclopropyl)-1,3-thiazol-4-yl]pyridine-2-carbonitrile]
≤ 50 | [O-][n+]1ccc(-c2csc(C3(c4ccccc4)CC3)n2)cc1 [Compound 2-3, 4-[2-(1-phenylcyclopropyl)-1,3-thiazol-4-yl]-1lambda~5~pyridin-1-ol]
≤ 50 | Oc1ccc(-c2csc(C3(c4ccccc4)CC3)n2)cc1O [Compound 3-2, 4-(3,4-dihydroxyphenyl)-2-(1-phenylcyclopropyl)-1,3-thiazole]
≤ 50 | Oc1cnccc1-c1csc(C2(c3ccccc3)CC2)n1 [Compound 3-3, 4-[2-(1-phenylcyclopropyl)-1,3-thiazol-4-yl]pyridin-3-ol]
≤ 50 | Oc1ccc(-c2csc(C3(c4ccccc4)CC3)n2)cc1 [Compound 3-4, 4-[2-(1-phenylcyclopropyl)-1,3-thiazol-4-yl]phenol]
≤ 50 | Oc1cccc(-c2csc(C3(c4ccccc4)CC3)n2)c1 [Compound 3-5, 3-[2-(1-phenylcyclopropyl)-1,3-thiazol-4-yl]phenol]
≤ 50 | OCc1cccc(-c2csc(C3(c4ccccc4)CC3)n2)c1 [Compound 5-1, {3-[2-(1-phenylcyclopropyl)-1,3-thiazol-4-yl]phenyl}methanol]
≤ 50 | Clc1cccc(C2(c3nc(-c4ccncc4)cs3)CC2)c1 [Compound 9-10, 4-{2-[1-(3-chlorophenyl)cyclopropyl]-1,3-thiazol-4-yl}pyridine]
≤ 50 | Fc1ccccc1C1(c2nc(-c3ccncc3)cs2)CC1 [Compound 9-11, 4-{2-[1-(2-fluorophenyl)cyclopropyl]-1,3-thiazol-4-yl}pyridine]
≤ 50 | Clc1cc(-c2csc(C3(c4ccccc4)CC3)n2)ccn1 [Compound 9-13, 2-chloro-4-[2-(1-phenylcyclopropyl)-1,3-thiazol-4-yl]pyridine]
≤ 50 | Cc1cccc(C2(c3nc(-c4ccncc4)cs3)CC2)c1 [Compound 9-14, 4-{2-[1-(3-methylphenyl)cyclopropyl]-1,3-thiazol-4-yl}pyridine]
